The results in this text go back to patent publication US20260176289A1, “SMALL MOLECULE INHIBITORS OF KRAS PROTEINS” (Merck Sharp & Dohme LLC, priority 2022, published 2026).

Format in all cases: biochemical
Experiment [1] concerns the target T1, KRAS G12C (amino acids 1-169) (Homo sapiens, UniProt P01116, G12C).
T1 construct: made in house; host or cells: E. coli
As to the kind of experiment: SOS-catalyzed nucleotide exchange assay (Procedure B, BODIPY FL GDP displacement), KRAS G12C. The settings on record: read-out: KRAS G12C GNE IC50. The gist of the method:
(§1)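 Purified BODIPY FL GDP-loaded KRAS (aa 1-169, E. coli-expressed), 2.5 nM, preincubated with compound 1 h at 25° C in Tris pH 7.5/MgCl2 buffer; SOS1 (aa 564-1049) plus GMPPNP then added, 30 min at room temperature. Fluorescence ratio before/after exchange normalized to DMSO and no-SOS1/GMPPNP controls; IC50 by 4-parameter logistic fit.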

Experiment [2] addresses T2, KRAS G12D (amino acids 1-169) (Homo sapiens, UniProt P01116, G12D).
T2 construct: made in house; host or cells: E. coli
Kind of experiment: SOS-catalyzed nucleotide exchange assay (Procedure B, BODIPY FL GDP displacement), KRAS G12D. The settings on record: read-out: KRAS G12D GNE IC50. In a few lines: as §1

In experiment [3] the target is T3, KRAS G12V (amino acids 1-169) (Homo sapiens, UniProt P01116, G12V).
T3 construct: made in house; host or cells: E. coli
Kind of experiment: SOS-catalyzed nucleotide exchange assay (Procedure B, BODIPY FL GDP displacement), KRAS G12V. The settings on record: read-out: KRAS G12V GNE IC50. In a few lines:
as §1

Experiment [4] concerns the target T4, KRAS WT (amino acids 1-169) (Homo sapiens, UniProt P01116).
T4 construct: made in house; host or cells: E. coli
Kind of experiment: SOS-catalyzed nucleotide exchange assay (Procedure B, BODIPY FL GDP displacement), KRAS WT. The settings on record: read-out: KRAS WT GNE IC50. The gist of the method: as §1

The structures appear in SMILES notation.

T1 sequence (P01116 with tags, fused parts or gaps isoform P01116-2 G12C): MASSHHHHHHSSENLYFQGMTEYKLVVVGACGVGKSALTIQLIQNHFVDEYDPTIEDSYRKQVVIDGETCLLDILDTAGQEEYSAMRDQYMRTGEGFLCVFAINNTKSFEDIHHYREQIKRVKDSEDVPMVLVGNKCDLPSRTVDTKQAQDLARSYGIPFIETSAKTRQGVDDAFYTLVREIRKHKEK
T4 sequence (P01116 with tags, fused parts or gaps isoform P01116-2): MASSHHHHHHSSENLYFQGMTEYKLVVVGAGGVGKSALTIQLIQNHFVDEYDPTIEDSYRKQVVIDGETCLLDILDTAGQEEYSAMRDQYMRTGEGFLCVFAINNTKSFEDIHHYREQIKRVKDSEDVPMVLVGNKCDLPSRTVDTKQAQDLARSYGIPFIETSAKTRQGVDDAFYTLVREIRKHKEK
T3 sequence (P01116 with tags, fused parts or gaps isoform P01116-2 G12V): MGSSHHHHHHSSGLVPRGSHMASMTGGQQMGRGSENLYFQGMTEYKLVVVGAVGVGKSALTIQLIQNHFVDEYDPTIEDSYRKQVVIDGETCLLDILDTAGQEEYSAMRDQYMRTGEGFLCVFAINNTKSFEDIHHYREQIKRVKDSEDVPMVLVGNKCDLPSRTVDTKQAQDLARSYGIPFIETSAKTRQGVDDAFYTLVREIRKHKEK
T2 sequence (P01116 with tags, fused parts or gaps isoform P01116-2 G12D): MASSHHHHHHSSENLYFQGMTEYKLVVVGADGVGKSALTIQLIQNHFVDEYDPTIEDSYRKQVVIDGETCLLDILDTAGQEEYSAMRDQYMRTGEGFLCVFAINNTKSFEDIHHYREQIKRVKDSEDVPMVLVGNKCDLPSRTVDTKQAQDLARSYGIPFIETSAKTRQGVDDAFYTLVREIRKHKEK

As a reminder, the IC50 is the concentration at which inhibition is half-maximal. In the case of `Cc1cc2[nH]ncc2c(-c2nccc3c2sc2nc(OC[C@@]45CCCN4C[C@H](F)C5)nc(N4CCOCC5(CC(=O)N5)C4)c23)c1C(F)(F)F` (stereo partly drawn) [Ex-194, 9-(2-(((2R,7aS)-2-fluoro-tetrahydro-1H-pyrrolizin-7a(5/7)-yl)methoxy)-8-(6-methyl-5-(trifluorometh-yl)-1H-indazol-4-yl)pyrido [4′,3′:4,5]thieno[2,3-d]pyrimidin-4-yl)-6-oxa-1,9-diazaspiro[3.6]decan-2-one], the IC50 in experiment [1] is 55.1 nM; in experiment [2], 57.6 nM; in experiment [3] it was 61.3 nM; in experiment [4], 167 nM.
The corresponding values for `C#Cc1c(Cl)cc2[nH]ncc2c1-c1nccn2c1c(F)c1nc(OC[C@@]34CCCN3C[C@H](F)C4)nc(N3CCOC[C@@](C)(O)C3)c12` [Ex-304, (S)-4-(9-(6-chloro-5-ethynyl-1H-indazol-4-yl)-10-fluoro-2-(((2R,7aS)-2-fluorotetrahydro-1H-pyrrolizin-7a(5H)-yl)methoxy)pyrazino[1′,2′:1,5]pyrrolo[3,2-d]pyrimidin-4-yl)-6-methyl-1,4-oxazepan-6-ol] are 24.9 nM, 13.1 nM, 33.9 nM and 34 nM.
The corresponding values for `C[C@@]1(O)COCCN(c2nc(OC[C@@]34CCCN3C[C@H](F)C4)nc3sc4c(-c5c6c(cc7[nH]ncc57)CCC6C5CC5)nccc4c23)C1` (stereo partly drawn) [Ex-104, (6S)-4-(8-(5-cyclopropyl-1,5,6,7-tetrahydrocyclopenta[f]in-dazol-4-yl)-2-(((2R,7aS)-2-fluorotetrahydro-1H-pyrrolizin-7a(5H)-yl)methoxy)pyrido[4′,3′:4,5]thieno[2,3-d]pyrimidin-4-yl)-6-methyl-1,4-oxazepan-6-ol] are 168 nM, 43.9 nM, 60 nM and 71.5 nM.
Regarding `Cc1cc2[nH]ncc2c(-c2nccc3c2sc2nc(OC[C@@]45CCCN4C[C@H](F)C5)nc(N4CCOC[C@@](C)(O)C4)c23)c1C(C)C` [Ex-137, (6S)-4-(2-(((2R, 7aS)-2-fluorotetra-hydro-1H-pyrrol-izin-7a(5H)-yl)meth-oxy)-8-(5-isopropyl-6-methyl-1H-ind-azol-4-yl)pyrido [4′,3′:4,5]thieno[2,3-d]pyrimidin-4-yl)-6-methyl-1,4-oxaze-pan-6-ol], the IC50 was determined as 40.1 nM in experiment [1], 32.6 nM in experiment [2], 66.7 nM in experiment [3] and 58 nM in experiment [4].
As for `C[C@@H]1C[C@@H]1c1c(Cl)cc2[nH]ncc2c1-c1nccc2c1sc1nc(OC[C@@]34CCCN3C[C@H](F)C4)nc(N3CCOC[C@@](C)(O)C3)c12` (atropisomer, axis not shown; (aS)) [Ex-68, (S)-4-((R)-8-(6-chloro-5-((1S,2R)-2-methylcyclopropyl)-1H-indazol-4-yl)-2-(((2R,7aS)-2-fluorotetrahydro-1H-pyrrolizin-7a(5H)-yl)methoxy)pyrido[4′,3′:4,5]thi-eno[2,3-d]pyrimidin-4-yl)-6-methyl-1,4-oxazepan-6-ol], the IC50 is 39 nM in experiment [1], 21.9 nM in experiment [2], 97.2 nM in experiment [3] and 57.3 nM in experiment [4].
The corresponding values for `C[C@@]1(O)COCCN(c2nc(OC[C@@]34CCCN3C[C@H](F)C4)nc3sc4c(-c5c6c(cc7[nH]ncc57)CCC6)nccc4c23)C1` [Ex-111, (6S)-4-(2-(((2R,7aS)-2-fluorotetrahydro-1H-pyrrolizin-7a(5H)-yl)methoxy)-8-(1,5,6,7-tetrahydrocyclopenta[f]in-dazol-4-yl)pyrido[4′,3′:4,5]thieno [2,3-d]pyrimidin-4-yl)-6-methyl-1,4-oxazepan-6-ol] are 44.4 nM, 18.7 nM, 38.1 nM and 34.1 nM.
For `C#Cc1c(Cl)cc2[nH]ncc2c1-c1nccc2c1sc1nc(OC[C@@]34CCCN3C[C@H](F)C4)nc(N3CCOC[C@@](C)(O)C3)c12` [Ex-158, (6S)-4-(8-(6-chloro-5-ethynyl-1H-indazol-4-yl)-2-(((2R,7aS)-2-fluorotetrahydro-1H-pyrrolizin-7a(5H)-yl)methoxy)pyrido[4′,3′:4,5]thieno[2,3-d]pyrimidin-4-yl)-6-methyl-1,4-oxazepan-6-ol], the IC50 in experiment [1] came to 15.4 nM; in experiment [2] it was 7.18 nM; in experiment [3], 15.5 nM; in experiment [4], 26.9 nM.
For `Cc1cc2[nH]ncc2c(-c2nccc3c2sc2nc(OC[C@@]45CCCN4C[C@H](F)C5)nc(N4CCOCC(C)C4)c23)c1C(F)(F)F` (stereo partly drawn) [Ex-182, 4-(2-(((2R,7aS)-2-fluoro-tetrahydro-1H-pyrrolizin-7a(5H)-yl)methoxy)-8-(6-methyl-5-(trifluorometh-yl)-1H-indazol-4-yl)pyrido [4′,3′:4,5]thieno[2,3-d]pyr-imidin-4-yl)-6-methyl-1,4-oxazepane], the IC50 in experiment [1] came out at 1260 nM; in experiment [2], 3630 nM; in experiment [3], 3200 nM; in experiment [4], 2190 nM.
The like results for `C#CC1CCc2cc3[nH]ncc3c(-c3nccc4c3sc3nc(OC[C@@]56CCCN5C[C@H](F)C6)nc(N5CCOC[C@@](C)(O)C5)c34)c21` (stereo partly drawn) [Ex-166, (6S)-4-(8-(5-ethyn-yl-1,5,6,7-tetrahydro-cyclopenta[f]indazol-4-yl)-2-(((2R,7aS)-2-fluorotetrahydro-1H-pyrrolizin-7a(5H)-yl)methoxy)-pyrido[4′,3′:4,5]thieno[2,3-d]pyr-imidin-4-yl)-6-meth-yl-1,4-oxazepan-6-ol] were, in that order, 18 nM, 6.65 nM, 15.8 nM and 12.4 nM.
The corresponding values for `CC1(C)Cc2cc3[nH]ncc3c(-c3nccc4c3sc3nc(OC[C@@]56CCCN5C[C@H](F)C6)nc(N5CCOC[C@@](C)(O)C5)c34)c2C1` [Ex-112, (6S)-4-(8-(6,6-dimethyl-1,5,6,7-tetrahydrocyclopenta[f]in-dazol-4-yl)-2-(((2R,7aS)-2-fluorotetrahydro-1H-pyrrolizin-7a(5H)-yl)methoxy)pyrido[4′,3′:4,5]thi-eno[2,3-d]pyrimidin-4-yl)-6-methyl-1,4-oxazepan-6-ol] are 518 nM, 274 nM, 402 nM and 473 nM.
